Measured values: patent US6723333B1, “Moulded bodies made of thermoplastic polyurethane containing an active substance” (priority 1998, dated 2004)

Test system: sensor bacteria (E. coli—test strain)
Test: Bioimaging of released active substance by effect-dependent bioluminescence of sensor bacteria
Format: cell-based
Conditions: after high temperatures of about 200° C. required for thermoplastic processing
Method: Microbiological evaluation and quantification of the release of active substance was performed using a new bioimaging technique. This method makes use of the selective effect-dependent bioluminescence of sensor bacteria (E. coli—test strain), in order to render visible the biological activity of the released active substance. The gyrase-inhibiting effect of ciprofloxacin was used in the system according to the invention, Texin® 5590 ciprofloxacin.
For imaging of the antibacterial effect, about 1 cm^2 sized samples of the active substance-containing material were placed in a petri dish and covered with a suspension of sensor bacteria in agarose. After an incubation period of about 30 minutes, the effect-dependent bioluminescence was assessed using a video-imaging system (e.g. EG&G Berthold, Luminograph LB 980). Antibiotic samples then appeared as luminescing areas.

O=C(O)c1cn(C2CC2)c2cc(N3CCNCC3)c(F)cc2c1=O [ciprofloxacin]
microbiological efficacy of the ciprofloxacin released from the polymer matrix: retained
